Source: ChEMBL document CHEMBL1201862, “PubChem BioAssay data set” (2004)
Calls of active or inactive are those of the source.

Columns and labels:
[1] = target: T1, Histone-lysine N-methyltransferase NSD2 (Homo sapiens, UniProt O96028); assay type: biochemical
T1 sequence (O96028 whole entry): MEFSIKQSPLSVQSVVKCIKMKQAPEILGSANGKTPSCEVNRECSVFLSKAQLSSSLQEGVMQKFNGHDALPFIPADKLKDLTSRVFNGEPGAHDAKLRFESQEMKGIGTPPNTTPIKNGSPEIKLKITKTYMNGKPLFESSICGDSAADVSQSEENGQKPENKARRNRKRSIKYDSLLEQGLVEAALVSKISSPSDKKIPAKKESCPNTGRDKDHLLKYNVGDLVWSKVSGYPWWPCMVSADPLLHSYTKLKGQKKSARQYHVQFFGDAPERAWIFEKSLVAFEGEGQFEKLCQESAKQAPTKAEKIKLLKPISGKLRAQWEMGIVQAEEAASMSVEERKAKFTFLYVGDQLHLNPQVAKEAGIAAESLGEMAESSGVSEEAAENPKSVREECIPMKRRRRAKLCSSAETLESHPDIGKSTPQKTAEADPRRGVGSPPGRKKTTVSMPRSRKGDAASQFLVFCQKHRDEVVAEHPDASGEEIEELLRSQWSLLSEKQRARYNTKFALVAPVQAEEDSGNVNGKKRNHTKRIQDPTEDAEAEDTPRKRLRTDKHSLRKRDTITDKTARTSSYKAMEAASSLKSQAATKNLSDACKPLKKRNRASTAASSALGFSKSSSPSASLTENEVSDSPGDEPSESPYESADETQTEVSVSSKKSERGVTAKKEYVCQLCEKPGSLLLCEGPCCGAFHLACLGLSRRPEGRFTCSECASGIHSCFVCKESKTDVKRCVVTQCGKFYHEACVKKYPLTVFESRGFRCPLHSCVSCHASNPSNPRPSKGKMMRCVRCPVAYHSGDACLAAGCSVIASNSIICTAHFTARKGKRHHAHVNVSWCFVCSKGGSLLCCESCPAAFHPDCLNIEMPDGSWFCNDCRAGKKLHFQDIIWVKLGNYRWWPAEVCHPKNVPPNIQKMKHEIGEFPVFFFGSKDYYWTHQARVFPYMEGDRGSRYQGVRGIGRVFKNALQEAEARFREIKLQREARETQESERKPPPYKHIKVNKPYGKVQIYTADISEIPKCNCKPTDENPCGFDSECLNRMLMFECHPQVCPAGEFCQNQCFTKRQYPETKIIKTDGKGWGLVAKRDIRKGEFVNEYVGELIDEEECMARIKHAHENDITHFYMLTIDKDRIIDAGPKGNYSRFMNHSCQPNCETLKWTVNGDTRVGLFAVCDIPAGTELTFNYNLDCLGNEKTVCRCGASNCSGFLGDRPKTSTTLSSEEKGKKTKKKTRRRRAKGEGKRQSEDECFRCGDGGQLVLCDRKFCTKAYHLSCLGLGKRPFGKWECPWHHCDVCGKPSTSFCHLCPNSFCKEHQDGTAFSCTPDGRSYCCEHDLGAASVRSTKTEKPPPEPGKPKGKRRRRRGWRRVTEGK

[2] = target: Serine/threonine-protein phosphatase (Homo sapiens, UniProt Q9BPW0); experiment: inhibition of protein phosphatase 5 activity – biochemical, fluorescence, dose response (AID 2395)
Serine/threonine-protein phosphatase, sequence (Q9BPW0 whole entry): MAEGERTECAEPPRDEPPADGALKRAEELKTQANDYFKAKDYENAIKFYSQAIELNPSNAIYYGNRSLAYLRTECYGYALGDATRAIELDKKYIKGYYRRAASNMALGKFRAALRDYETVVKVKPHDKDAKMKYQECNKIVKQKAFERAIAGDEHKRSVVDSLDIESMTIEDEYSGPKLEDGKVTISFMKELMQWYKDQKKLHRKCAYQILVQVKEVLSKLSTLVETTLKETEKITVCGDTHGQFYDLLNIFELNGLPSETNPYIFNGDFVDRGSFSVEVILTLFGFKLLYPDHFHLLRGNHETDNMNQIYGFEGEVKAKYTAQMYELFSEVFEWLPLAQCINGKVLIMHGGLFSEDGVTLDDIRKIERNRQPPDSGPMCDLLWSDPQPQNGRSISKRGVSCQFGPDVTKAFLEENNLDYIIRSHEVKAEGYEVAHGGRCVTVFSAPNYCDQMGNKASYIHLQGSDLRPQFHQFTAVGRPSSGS

[3] = target: T2, Apoptotic protease-activating factor 1 (Homo sapiens, UniProt O14727); assay type: functional
T2 sequence (O14727 whole entry): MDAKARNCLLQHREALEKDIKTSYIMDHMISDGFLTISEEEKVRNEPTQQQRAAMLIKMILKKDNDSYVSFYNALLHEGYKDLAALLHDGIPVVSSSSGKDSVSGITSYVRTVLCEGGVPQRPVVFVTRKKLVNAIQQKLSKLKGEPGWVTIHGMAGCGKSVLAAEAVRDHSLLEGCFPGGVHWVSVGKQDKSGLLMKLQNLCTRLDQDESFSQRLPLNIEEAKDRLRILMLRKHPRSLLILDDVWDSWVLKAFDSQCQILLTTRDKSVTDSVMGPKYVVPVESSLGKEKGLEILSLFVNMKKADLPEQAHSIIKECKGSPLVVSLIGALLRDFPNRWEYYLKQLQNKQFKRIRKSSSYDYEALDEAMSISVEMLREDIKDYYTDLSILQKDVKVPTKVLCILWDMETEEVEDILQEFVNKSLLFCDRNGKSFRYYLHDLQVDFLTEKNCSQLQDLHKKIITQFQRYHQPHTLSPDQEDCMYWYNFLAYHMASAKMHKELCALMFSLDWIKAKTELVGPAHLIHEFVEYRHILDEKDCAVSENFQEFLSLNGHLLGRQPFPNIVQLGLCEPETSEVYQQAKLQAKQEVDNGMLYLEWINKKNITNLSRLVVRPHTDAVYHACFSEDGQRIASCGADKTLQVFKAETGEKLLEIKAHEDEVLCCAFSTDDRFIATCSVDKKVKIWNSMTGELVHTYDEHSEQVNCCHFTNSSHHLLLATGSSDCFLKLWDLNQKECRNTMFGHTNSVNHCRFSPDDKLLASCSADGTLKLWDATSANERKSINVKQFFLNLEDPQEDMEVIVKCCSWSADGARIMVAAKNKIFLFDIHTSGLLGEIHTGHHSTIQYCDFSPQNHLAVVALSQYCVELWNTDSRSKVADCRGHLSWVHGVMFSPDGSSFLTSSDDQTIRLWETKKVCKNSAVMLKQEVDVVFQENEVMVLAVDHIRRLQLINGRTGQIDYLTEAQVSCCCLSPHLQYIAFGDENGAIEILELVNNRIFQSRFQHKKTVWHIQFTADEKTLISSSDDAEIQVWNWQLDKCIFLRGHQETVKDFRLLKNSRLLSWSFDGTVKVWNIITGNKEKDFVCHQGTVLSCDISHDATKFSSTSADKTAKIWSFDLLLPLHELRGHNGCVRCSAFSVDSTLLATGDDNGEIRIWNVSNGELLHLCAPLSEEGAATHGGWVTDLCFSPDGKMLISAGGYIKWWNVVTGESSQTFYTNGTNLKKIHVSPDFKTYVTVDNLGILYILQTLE

[4] = target: Serine/threonine-protein phosphatase PP1-alpha catalytic subunit (Homo sapiens, UniProt P62136); experiment: inhibition of protein phosphatase 1 activity – biochemical, fluorescence, dose response (AID 2394)
Serine/threonine-protein phosphatase PP1-alpha catalytic subunit, sequence (P62136 whole entry): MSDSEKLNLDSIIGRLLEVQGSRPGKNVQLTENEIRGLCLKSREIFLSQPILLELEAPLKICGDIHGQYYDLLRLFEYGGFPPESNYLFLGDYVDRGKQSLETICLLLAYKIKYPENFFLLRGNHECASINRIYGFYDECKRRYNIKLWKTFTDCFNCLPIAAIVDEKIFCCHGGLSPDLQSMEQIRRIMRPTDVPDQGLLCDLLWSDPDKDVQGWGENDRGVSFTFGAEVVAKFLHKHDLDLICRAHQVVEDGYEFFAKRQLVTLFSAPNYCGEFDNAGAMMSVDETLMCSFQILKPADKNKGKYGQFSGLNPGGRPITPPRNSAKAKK

[5] = target: T3, Sentrin-specific protease 8 (Homo sapiens, UniProt Q96LD8); experiment: inhibition of human SENP8 cleavage activity – biochemical, luminescence, SAR follow-up (AID 504501); assay type: functional
T3 sequence (Q96LD8 whole entry): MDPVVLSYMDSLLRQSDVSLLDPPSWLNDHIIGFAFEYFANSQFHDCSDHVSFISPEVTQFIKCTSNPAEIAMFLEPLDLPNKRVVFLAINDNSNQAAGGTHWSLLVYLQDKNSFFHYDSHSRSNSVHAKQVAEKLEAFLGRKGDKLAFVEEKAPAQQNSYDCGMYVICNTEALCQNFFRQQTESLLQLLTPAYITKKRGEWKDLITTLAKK

[6] = viability of PTEN-deleted HCT116 cells – cell-based, HCT116 PTEN knockout, dose response (AID 1047); assay type: functional;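 further: HCT116 colon tumor cells with PTEN knocked out; cells exposed to compound for 60 hours before readout; potency for loss of cell viability measured by luminescence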

Compound	AC50 [1]	IC50 [2]	IC50 [3]	IC50 [4]	IC50 [5]	EC50 [6]
CCOC(=O)C1=C(COC(=O)c2ccc([N+](=O)[O-])s2)NC(=O)NC1C (stereo unspecified)	5.86 µM (active)	–	–	–	–	–
Oc1cccc(/C=N/Nc2cc(N3CCCC3)nc(N3CCCC3)n2)c1	–	5.83 µM (active)	1.84 µM (active)	21.6 µM (not active)	> 99 µM (inactive)	20.3 µM (active)
